The source of these data is patent US6214876A, “Indene-1-acetamide sPLA2 inhibitors” (Eli Lilly and Company, priority 1994, dated 2001).

This test has as its target T1, recombinant human secreted phospholipase A2 (Homo sapiens, UniProt P14555).
T1 sequence (P14555 21-144): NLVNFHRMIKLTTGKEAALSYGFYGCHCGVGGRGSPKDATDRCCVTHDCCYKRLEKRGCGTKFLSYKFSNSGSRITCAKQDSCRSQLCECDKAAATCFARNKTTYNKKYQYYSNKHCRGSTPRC
Nature of the test: PLA2 Chromogenic Assay (human secreted phospholipase A2 inhibition). The test is classed as biochemical. To be noted: racemic diheptanoyl thio-PC 1 mM, pH 7.5, 40° C., 30 minutes, 405 nanometers, triplicate, read-out: Compound IC50. The text has this: The following chromogenic assay procedure was used to identify and evaluate inhibitors of recombinant human secreted phospholipase A2. The assay described herein has been adapted for high volume screening using 96 well microtiter plates. A general description of this assay method is found in the article, "Analysis of Human Synovial Fluid Phospholipase A2 on Short Chain Phosphatidylcholine-Mixed Micelles: Development of a Spectrophotometric Assay Suitable for a Microtiterplate Reader", by Laure J. Reynolds, Lori L. Hughes, and Edward A Dennis, Analytical Biochemistry,204, pp. 190-197, 1992 (the disclosure of which is incorporated herein by reference): […]
A measured volume of racemic dipheptanoyl thio PC supplied in chloroform at a concentration of 100 mg/ml is taken to dryness and redissolved in 10 millimolar TRITON X-100™ nonionic detergent aqueous solution. […]
5. Read absorbance of wells at 405 nanometers with an automatic plate reader.
All compounds were tested in triplicate. […] Compounds initially found to be active were reassayed to confirm their activity and, if sufficiently active, IC50 values were determined. […] In all cases, % inhibition measured at 405 nanometers generated by enzyme reactions containing inhibitors relative to the uninhibited control reactions was determined. […] IC50 were determined by plotting log concentration versus inhibition values in the range from 10-90% inhibition.

As usually defined, the IC50 is the concentration that inhibits the measured activity by half. Consider `CC1=C(CC(N)=O)c2cc(OCCCC(=O)O)ccc2/C1=C\c1ccccc1` [Compound 14a, 4-[3(z)-benzylidene-1-carbamoylmethyl-2-methyl-3H-inden-6-yloxy]-butanoic acid], for which the IC50 is 910 nM. For the compound `CC1=C(CC(N)=O)c2c(OCC(=O)O)cccc2/C1=C\c1ccccc1` [Compound 14b, [3(z)-benzylidene-1-carbamoylmethyl-2-methyl-3H-inden-7-yloxy]-acetic acid], the IC50 stood at 420 nM.
